In assay [1] the target is recombinant human TTK protein (Homo sapiens (Human), UniProt P33981). Put plainly: Evaluation of TTK activity inhibitory ability (scintillation counting).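 Note: reaction stopped with 0.5% phosphoric acid, spotted on P30 filter, TTK activity counted by scintillation, uninhibited no-compound wells taken as 100% control.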 In kind it is biochemical. As to conditions: TTK inhibitory activity; read-out: IC50.
Method: To determine the ability of a compound represented by Chemical Formula 1 according to the present invention to inhibit TTK activity, the following experiment was conducted.
After that, the reaction was terminated by adding phosphoric acid to a concentration of 0.5%, and 10 of the reaction solution was dropped onto a P30 filter. […] The activity of TTK was measured through scintillation counting. The activity value from the group with no compound was set as 100% of control, and the degree of TTK inhibition by the compound was calculated.
In assay [2] the test system is MDA-MB-231 triple negative breast cancer cell line. Put plainly: Cytotoxicity in TTK-expressed MDA-MB-231 cells. In kind it is cell-based. The settings on record: Homo sapiens, MDA-MB-231, 120 h, 5 days. Here is the method: To determine the cytotoxicity of a compound represented by Chemical Formula 1 according to the present invention to MDA-MB-231 cells, the following test was conducted.
MDA-MB-231 triple negative breast cancer cell line purchased from ATCC was inoculated into each well of a 96-well plate at a volume of 90 μL containing 2,000 cells. Thereafter, an example compound of the present invention was added to respective wells at concentrations of 10 μM, 3 μM, 1 μM, 0.3 μM, 0.1 μM, and 0 μM, and the cells were cultured in a cell incubator at 37° C. for 5 days. Five days later, 10 μL of Cyto X solution (manufacturer: LPS Solution) was added to each of the wells, and the absorbance was measured at 450 nm using an Epoch microplate spectrophotometer (manufacturer: BioTek Instruments Inc.) according to the product's user guide. For cytotoxicity, the IC50 value for cytotoxicity of each compound was calculated by quantifying the number of cells using the measured value.

The subject of assay [3] is HCT116 colon cancer cell line. Put plainly: Cytotoxicity in TTK-expressed HCT116 cells. Format: cell-based. As to conditions: Homo sapiens, HCT-116, 120 h, 5 days. Here is the method: To determine the cytotoxicity of a compound represented by Chemical Formula 1 according to the present invention to HCT116 cells, the following test was conducted.
HCT116 colon cancer cell line purchased from ATCC was inoculated into each well of a 96-well plate at a volume of 90 μL containing 2,000 cells. Thereafter, an example compound of the present invention was added to respective wells at concentrations of […], 3 μM, 1 μM, 0.3 μM, 0.1 μM, and 0 μM, and the cells were cultured in a cell incubator at 37° C. for 5 days. After 5 days, the number of cells was measured by CCK8 test method, and the cytotoxicity was determined by calculating the IC50 value for cytotoxicity of each compound.

recombinant human TTK protein, sequence (P33981 whole entry): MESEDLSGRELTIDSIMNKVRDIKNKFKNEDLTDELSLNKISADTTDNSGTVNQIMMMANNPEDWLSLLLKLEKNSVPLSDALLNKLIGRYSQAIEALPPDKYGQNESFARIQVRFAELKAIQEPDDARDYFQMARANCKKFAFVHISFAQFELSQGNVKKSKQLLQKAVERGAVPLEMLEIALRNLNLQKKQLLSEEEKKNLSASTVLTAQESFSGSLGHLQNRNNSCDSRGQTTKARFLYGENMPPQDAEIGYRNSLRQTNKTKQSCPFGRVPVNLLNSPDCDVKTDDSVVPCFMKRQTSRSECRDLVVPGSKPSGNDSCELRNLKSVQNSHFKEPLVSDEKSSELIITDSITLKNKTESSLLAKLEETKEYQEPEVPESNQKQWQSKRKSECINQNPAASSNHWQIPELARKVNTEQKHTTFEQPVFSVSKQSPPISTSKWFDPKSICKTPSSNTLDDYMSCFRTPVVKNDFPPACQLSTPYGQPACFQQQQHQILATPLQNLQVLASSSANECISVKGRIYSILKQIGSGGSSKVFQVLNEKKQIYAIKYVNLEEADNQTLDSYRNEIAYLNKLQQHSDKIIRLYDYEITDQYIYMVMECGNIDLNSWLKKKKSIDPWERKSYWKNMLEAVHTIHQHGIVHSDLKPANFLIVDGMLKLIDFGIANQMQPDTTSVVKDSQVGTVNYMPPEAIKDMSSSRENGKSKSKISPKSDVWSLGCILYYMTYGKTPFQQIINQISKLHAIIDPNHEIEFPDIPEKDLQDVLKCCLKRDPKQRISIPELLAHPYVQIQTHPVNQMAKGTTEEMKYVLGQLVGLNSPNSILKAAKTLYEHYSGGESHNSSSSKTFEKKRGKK

With `COc1cc(N2CCOCC2)ccc1Nc1nc(NC2CCOCC2)c2c(-c3ccncc3)n[nH]c2n1` [Compound 8-28, N^6-(2-methoxy-4-morpholinophenyl)-3-(pyridin-4-yl)-N^4-(tetrahydro-2H-pyran-4-yl)-1H-pyrazolo[3,4-d]pyrimidine-4,6-diamine], the IC50 – broadly, the point on the concentration scale where inhibition reaches its midpoint – is less than 0.03 µM in assay [1], 150 to 500 nM in assay [2] and 150 to 500 nM in assay [3].

As for `COc1cc(N2CCOCC2)ccc1Nc1nc(NCC2CCCO2)c2c(-c3cnn(C)c3)n[nH]c2n1` (stereo not drawn) [Compound 8-34, N^6-(2-methoxy-4-morpholinophenyl)-3-(1-methyl-1H-pyrazol-4-yl)-N^4-((tetrahydrofuran-2-yl)methyl)-1H-pyrazolo[3,4-d]pyrimidine-4,6-diamine], the values for the IC50 in assay [1], in assay [2] and in assay [3] were less than 0.03 µM, greater than 1000 nM and greater than 1000 nM, respectively.

Take `COc1cc(N2CCOCC2)ccc1Nc1nc(NCC2CCCO2)c2c(-c3cnoc3)n[nH]c2n1` (stereo not drawn) [Compound 8-35, 3-(Isoxazol-4-yl)-N^6-(2-methoxy-4-morpholinophenyl)-N^4-((tetrahydrofuran-2-yl)methyl)-1H-pyrazolo[3,4-d]pyrimidine-4,6-diamine]: the values for the IC50 in assay [1], in assay [2] and in assay [3] were less than 0.03 µM, greater than 1000 nM and greater than 1000 nM, respectively.

In the case of `COc1cc(-c2nncn2C)ccc1Nc1nc(NC2CCCCC2)c2c(-c3cnn(C)c3)n[nH]c2n1` [Compound 11-2, N^4-cyclohexyl-N^6-(2-methoxy-4-(4-methyl-4H-1,2,4-triazol-3-yl)phenyl)-3-(1-methyl-1H-pyrazol-4-yl)-1H-pyrazolo[3,4-d]pyrimidine-4,6-diamine], the IC50 in assay [1] was less than 0.03 µM; in assay [2], less than 150 nM; in assay [3], less than 150 nM.

On to `CNC(=O)c1ccc(Nc2nc(NC3CCCCC3)c3c(-c4cnn(C)c4)n[nH]c3n2)c(OC)c1` [Compound 11-3, 4-((4-(cyclohexylamino)-3-(1-methyl-1H-pyrazol-4-yl)-1H-pyrazolo[3,4-d]pyrimidin-6-yl)amino)-3-methoxy-N-methylbenzamide], for which the IC50 in assay [1] is less than 0.03 µM; in assay [2], less than 150 nM; in assay [3], 150 to 500 nM.

`COc1cc(C(=O)N2CCOCC2)ccc1Nc1nc(NC2CCCCC2)c2c(-c3cnn(C)c3)n[nH]c2n1` [Compound 11-4, (4-((4-(cyclohexylamino)-3-(1-methyl-1H-pyrazol-4-yl)-1H-pyrazolo[3,4-d]pyrimidin-6-yl)amino)-3-methoxyphenyl)(morpholino)methanone]: the 50% inhibitory concentration (IC50) in assay [1] was less than 0.03 µM; in assay [2], 150 to 500 nM; in assay [3] it was 150 to 500 nM.

In the case of `COc1cc(C(=O)N2CCN(C)CC2)ccc1Nc1nc(NC2CCCCC2)c2c(-c3cnn(C)c3)n[nH]c2n1` [Compound 11-5, (4-((4-(cyclohexylamino)-3-(1-methyl-1H-pyrazol-4-yl)-1H-pyrazolo[3,4-d]pyrimidin-6-yl)amino)-3-methoxyphenyl)(4-methylpiperazin-1-yl)methanone], the IC50 in assay [1] is 0.03 to 0.1 µM; in assay [2], 500 to 1000 nM; in assay [3] it was 150 to 500 nM.

Turning to `COc1cc(N2CCOCC2)ccc1Nc1nc(NC2CCCCC2)c2c(-c3nncn3C)n[nH]c2n1` [Compound 14-1, N^4-cyclohexyl-N^6-(2-methoxy-4-morpholinophenyl)-3-(4-methyl-4H-1,2,4-triazol-3-yl)-1H-pyrazolo[3,4-d]pyrimidine-4,6-diamine], the results for the IC50 in assay [1], in assay [2] and in assay [3] were 0.03 to 0.1 µM, less than 150 nM and 150 to 500 nM, respectively.

Regarding `COc1cc(N2CCOCC2)ccc1Nc1nc(NC2CCCCC2)c2c(-c3nnco3)n[nH]c2n1` [Compound 14-2, N^4-cyclohexyl-N^6-(2-methoxy-4-morpholinophenyl)-3-(1,3,4-oxadiazol-2-yl)-1H-pyrazolo[3,4-d]pyrimidine-4,6-diamine], the IC50 in assay [1] lay in the range of 0.03 to 0.1 µM; in assay [2], 150 to 500 nM; in assay [3] it was 150 to 500 nM.

Source of the values: patent publication US20250145625A1, “PYRAZOLOPYRIMIDINE DERIVATIVE AND ANTICANCER PHARMACEUTICAL COMPOSITION CONTAINING SAME AS ACTIVE INGREDIENT” (KOREA RESEARCH INSTITUTE OF CHEMICAL TECHNOLOGY, priority 2021, published 2025).
